According to PubChem BioAssay (NCI):
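Five compound concentrations were applied to cells in 96-well plates for 48 hours; endpoints were derived by simple linear interpolation of the resulting dose-response curve. GI50 = concentration required for 50% inhibition of growth. At the TGI there is no net growth.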

Tests used:
Assay in all cases: growth of human tumour cells (NCI), 48 h
UACC-62 melanoma = tested on: UACC-62 melanoma
HOP-62 NSCLC = tested on: HOP-62 NSCLC
HL-60(TB) leukemia = tested on: HL-60(TB) leukemia
HCT-15 colon = tested on: HCT-15 colon
OVCAR-8 ovarian = tested on: OVCAR-8 ovarian
SF-539 CNS = tested on: SF-539 CNS
SN12C renal = tested on: SN12C renal
SW-620 colon = tested on: SW-620 colon
HT29 colon = tested on: HT29 colon
OVCAR-3 ovarian = tested on: OVCAR-3 ovarian
SF-295 CNS = tested on: SF-295 CNS
A549 NSCLC = tested on: A549 NSCLC
SNB-19 CNS = tested on: SNB-19 CNS
MCF7 breast = tested on: MCF7 breast
TK-10 renal = tested on: TK-10 renal
MDA-MB-231 breast = tested on: MDA-MB-231 breast
OVCAR-5 ovarian = tested on: OVCAR-5 ovarian
UO-31 renal = tested on: UO-31 renal
SR leukemia = tested on: SR leukemia
SK-MEL-2 melanoma = tested on: SK-MEL-2 melanoma
UACC-257 melanoma = tested on: UACC-257 melanoma
DU-145 prostate = tested on: DU-145 prostate
K-562 leukemia = tested on: K-562 leukemia
CAKI-1 renal = tested on: CAKI-1 renal
NCI-H460 lung = tested on: NCI-H460 lung
NCI/ADR-RES ovarian = tested on: NCI/ADR-RES ovarian
NCI-H23 lung = tested on: NCI-H23 lung
COLO 205 colon = tested on: COLO 205 colon
SK-OV-3 ovarian = tested on: SK-OV-3 ovarian
HCT-116 colon = tested on: HCT-116 colon
CCRF-CEM leukemia = tested on: CCRF-CEM leukemia
HCC-2998 colon = tested on: HCC-2998 colon
NCI-H522 lung = tested on: NCI-H522 lung
KM12 colon = tested on: KM12 colon
MALME-3M melanoma = tested on: MALME-3M melanoma
ACHN renal = tested on: ACHN renal
EKVX NSCLC = tested on: EKVX NSCLC
RXF 393 renal = tested on: RXF 393 renal
SK-MEL-28 melanoma = tested on: SK-MEL-28 melanoma
A498 renal = tested on: A498 renal
PC-3 prostate = tested on: PC-3 prostate
786-0 renal = tested on: 786-0 renal
SNB-75 CNS = tested on: SNB-75 CNS
MDA-MB-435 = tested on: MDA-MB-435
RPMI-8226 leukemia = tested on: RPMI-8226 leukemia
MOLT-4 leukemia = tested on: MOLT-4 leukemia
BT-549 breast = tested on: BT-549 breast
IGROV1 ovarian = tested on: IGROV1 ovarian
U251 CNS = tested on: U251 CNS
HOP-92 NSCLC = tested on: HOP-92 NSCLC
M14 melanoma = tested on: M14 melanoma
HS 578T breast = tested on: HS 578T breast
LOX IMVI melanoma = tested on: LOX IMVI melanoma
SK-MEL-5 melanoma = tested on: SK-MEL-5 melanoma
MDA-MB-468 breast = tested on: MDA-MB-468 breast
NCI-H226 lung = tested on: NCI-H226 lung
SF-268 CNS = tested on: SF-268 CNS
OVCAR-4 ovarian = tested on: OVCAR-4 ovarian

What does the source list for `COc1ccc2[nH]c(O)c(N=Nc3nc(-c4ccc(Br)cc4)cs3)c2c1`?
GI50 (UACC-62 melanoma): 2.97 µM; TGI (UACC-62 melanoma): > 100 µM; GI50 (HOP-62 NSCLC): 6.51 µM; TGI (HOP-62 NSCLC): 36 µM; GI50 (HL-60(TB) leukemia): 87.8 µM; TGI (HL-60(TB) leukemia): > 100 µM; GI50 (HCT-15 colon): 4.43 µM; TGI (HCT-15 colon): 30.6 µM; GI50 (OVCAR-8 ovarian): 3.07 µM; TGI (OVCAR-8 ovarian): 9.52 µM; GI50 (SF-539 CNS): 1.92 µM; TGI (SF-539 CNS): 3.95 µM; GI50 (SN12C renal): 3.16 µM; TGI (SN12C renal): 11.1 µM; GI50 (SW-620 colon): 3.06 µM; TGI (SW-620 colon): > 100 µM; GI50 (HT29 colon): 7.18 µM; TGI (HT29 colon): > 100 µM; GI50 (OVCAR-3 ovarian): 2.91 µM; TGI (OVCAR-3 ovarian): 10.4 µM; GI50 (SF-295 CNS): 11.3 µM; TGI (SF-295 CNS): 39.3 µM; GI50 (A549 NSCLC): 3.07 µM; TGI (A549 NSCLC): 12.9 µM; GI50 (SNB-19 CNS): 8.01 µM; TGI (SNB-19 CNS): 52.4 µM; GI50 (MCF7 breast): 2.98 µM; TGI (MCF7 breast): 79.8 µM; GI50 (TK-10 renal): 14.7 µM; TGI (TK-10 renal): 89.9 µM; GI50 (MDA-MB-231 breast): 5.35 µM; TGI (MDA-MB-231 breast): 20.7 µM; GI50 (OVCAR-5 ovarian): 5.77 µM; TGI (OVCAR-5 ovarian): 33.8 µM; GI50 (UO-31 renal): 9.13 µM; TGI (UO-31 renal): 28.2 µM; GI50 (SR leukemia): 4.73 µM; TGI (SR leukemia): > 100 µM; GI50 (SK-MEL-2 melanoma): 2.6 µM; TGI (SK-MEL-2 melanoma): 8.11 µM; GI50 (UACC-257 melanoma): 8.64 µM; TGI (UACC-257 melanoma): > 100 µM; GI50 (DU-145 prostate): 4.54 µM; TGI (DU-145 prostate): 32.6 µM; GI50 (K-562 leukemia): 4.35 µM; TGI (K-562 leukemia): > 100 µM; GI50 (CAKI-1 renal): 5.1 µM; TGI (CAKI-1 renal): 32.7 µM; GI50 (NCI-H460 lung): 2.48 µM; TGI (NCI-H460 lung): 6.14 µM; GI50 (NCI/ADR-RES ovarian): 2.1 µM; TGI (NCI/ADR-RES ovarian): 4.58 µM; GI50 (NCI-H23 lung): 3.51 µM; TGI (NCI-H23 lung): 14.2 µM; GI50 (COLO 205 colon): 5.6 µM; TGI (COLO 205 colon): > 100 µM; GI50 (SK-OV-3 ovarian): 6.16 µM; TGI (SK-OV-3 ovarian): 50.3 µM; GI50 (HCT-116 colon): 2.35 µM; TGI (HCT-116 colon): 5.72 µM; GI50 (CCRF-CEM leukemia): 6.56 µM; TGI (CCRF-CEM leukemia): > 100 µM; GI50 (HCC-2998 colon): 4.25 µM; TGI (HCC-2998 colon): > 100 µM; GI50 (NCI-H522 lung): 2.5 µM; TGI (NCI-H522 lung): 39 µM; GI50 (KM12 colon): 6.23 µM; TGI (KM12 colon): > 100 µM; GI50 (MALME-3M melanoma): 1.69 µM; TGI (MALME-3M melanoma): 3.2 µM; GI50 (ACHN renal): 3.18 µM; TGI (ACHN renal): 10.1 µM; GI50 (EKVX NSCLC): 3.63 µM; TGI (EKVX NSCLC): 27.9 µM; GI50 (RXF 393 renal): 2.29 µM; TGI (RXF 393 renal): 5.07 µM; GI50 (SK-MEL-28 melanoma): 2.01 µM; TGI (SK-MEL-28 melanoma): 4.19 µM; GI50 (A498 renal): 2.38 µM; TGI (A498 renal): 6.5 µM; GI50 (PC-3 prostate): 5.22 µM; TGI (PC-3 prostate): 60.1 µM; GI50 (786-0 renal): 1.65 µM; TGI (786-0 renal): 3.22 µM; GI50 (SNB-75 CNS): 3 µM; TGI (SNB-75 CNS): 21.3 µM; GI50 (MDA-MB-435): 6.64 µM; TGI (MDA-MB-435): > 100 µM; GI50 (RPMI-8226 leukemia): 3.62 µM; TGI (RPMI-8226 leukemia): > 100 µM; GI50 (MOLT-4 leukemia): 3.33 µM; TGI (MOLT-4 leukemia): > 100 µM; GI50 (BT-549 breast): 7.26 µM; TGI (BT-549 breast): 36.6 µM; GI50 (IGROV1 ovarian): 5.41 µM; TGI (IGROV1 ovarian): > 100 µM; GI50 (U251 CNS): 2.96 µM; TGI (U251 CNS): 9.25 µM; GI50 (HOP-92 NSCLC): 1.96 µM; TGI (HOP-92 NSCLC): 5.21 µM; GI50 (M14 melanoma): 2.81 µM; TGI (M14 melanoma): 10.3 µM; GI50 (HS 578T breast): 7.34 µM; TGI (HS 578T breast): > 100 µM; GI50 (LOX IMVI melanoma): 3.77 µM; TGI (LOX IMVI melanoma): 12.5 µM; GI50 (SK-MEL-5 melanoma): 4.72 µM; TGI (SK-MEL-5 melanoma): 30.9 µM; GI50 (MDA-MB-468 breast): 2.17 µM; TGI (MDA-MB-468 breast): 5.81 µM; GI50 (NCI-H226 lung): 4.44 µM; TGI (NCI-H226 lung): 19.5 µM; GI50 (SF-268 CNS): 6.49 µM; TGI (SF-268 CNS): 36.6 µM; GI50 (OVCAR-4 ovarian): 1.73 µM; TGI (OVCAR-4 ovarian): 3.23 µM
